Experimental findings from the NIST ThermoML archive (doi:10.1021/je400980w) are described below.

For the series the following is noted: Liquid.

± gives the expanded uncertainty stated by the source.

Turning to `OCCO` [1,2-ethanediol], the “vapor or sublimation pressure” value reads like this: (420.74 K) 20 ± 2 kPa; (432.29 K) 30 ± 2 kPa; (440.15 K) 40 ± 2 kPa.

For the molecule `CCC(O)CO` (stereo unspecified) [1,2-butanediol], the “vapor or sublimation pressure” value reads like this: (420.46 K) 20 ± 2 kPa; (431.49 K) 30 ± 2 kPa; (439.8 K) 40 ± 2 kPa.

For orientation: vapor or sublimation pressure means the equilibrium pressure above the liquid or solid.
